Our source for the Drug permeability values is patent publication US5500416A, “Percutaneous absorption promoting agent and dermatologic preparation containing the same” (priority 1987, dated 1996).

The subject of this data set is enucleated skin of a hairless mouse. The data set can be described thus: Drug permeability test by in vitro diffusion cell. The data set is classed as in vitro ADME. Particulars: pH 7.2. The procedure:
A drug permeability test was conducted for amine oxide, which is the product of the present invention.
Pharmaceutical samples comprising the following composition were prepared.
For an evaluation of the percutaneous absorption promoting effect of a drug with the test substance, a drug permeability test was conducted by in vitro diffusion cell, using the enucleated skin of a hairless mouse. As the diffusion cell device, a vertical film type 2-compartment cell with a diffusion area of 2 cm^2 was employed. The whole skin layer at the back of a 10 to 15 weeks old male hairless mouse was enucleated and mounted on a diffusion cell. In the cell compartment on the medicament sample side, 2 ml of a medicament sample was placed, and 2 ml of a phosphate buffer phisiological saline (pH 7.2) was placed in the cell compartment on the receptor side, and the whole cell maintained at 32° C. in a thermostat tank while gently stirring both phases. After 24 hours, the receptor solution was sampled and the amount of the drug permeated by high performance chromatography to the receptor side quantitated.

On to `CCCCCCCCCCCCCCCCCC[N+](C)(C)[O-]` [Example 5-1, Dimethylstearylamine oxide], for which the Drug permeability worked out at 44.0%.

`CCCCCCCCCCCCCCCCCCCCCC[N+](C)(C)[O-]` [Example 5-2, Dimethylbehenylamine oxide] yielded a Drug permeability of 28.6%.

Take `CCCCCCCCCCCCCCCCCC[N+]([O-])(CCO)CCO` [Example 5-3, Dihyroxyethylstearylamine oxide]: the Drug permeability amounted to 30.5%. For the molecule `CCCCCCCCCCCC[N+](C)(C)[O-]` [Example 5-4, Dimethyllaurylamine oxide], the Drug permeability (Table 5-1, hydroquinone 1.0%, test substance 0.1%, ethanol 20%, 24 hours, 32° C.) is given as 9.4%. In the case of `CCCCCCCCCCCCCC[N+](C)(C)[O-]` [Example 5-5, Dimethylmyristylamine oxide], the Drug permeability was determined as 11.8%.
